One data set relates to S. aureus MRSA 5. The experiment in a line: dose-response against clinical isolate MRSA 5. Type of data set: cell-based. To be noted: Staphylococcus aureus, mean [95% confidence interval]. On the procedure:
The antimicrobial activity of the compounds was assessed by a well-established broth microdilution procedure in microtiter plates and in compliance with the Clinical and laboratory Standard Institute (CLSI) guidelines (Clinical and Laboratory Standards Institute, Wayne, PA, USA). In short, microbial inocula were prepared at 0.5 McFarland in PBS and, subsequently, bacterial suspensions were diluted 1:200 in Mueller–Hinton broth (Sigma-Aldrich, St. Louis, MO, USA), while fungal inoculum was diluted 1:20 in RPMI-1640 medium (Gibco®, ThermoFisher Scientific Inc., Waltham, MA, USA), containing 2% glucose and 0.3% levo-glutamine buffered to pH 7.0 with 0.165 M 3-(N-morpholino)propanesulfonic acid (MOPS). A total of 100 µL of these microbial suspensions were introduced in a 96-well microplate and incubated with 100 µL of the compounds, two-fold serially diluted in the range of 100–0.19 µM. Positive controls (microbial suspensions in regular media), negative controls (only compounds), and solvent controls (microbial suspensions incubated with DMSO dilutions) were included in the tests. The plate was incubated at 37 °C for 24 h, and subsequently, the optical density at 630 nm (OD630nm) was spectrophotometrically measured. Each experiment was carried out with three technical replicates (i.e., three wells per sample) and repeated at least two times for statistical power. […]

For data set [1], the system named is human red blood cells (hRBCs). In words: hemolytic assay. Format: cell-based. To be noted: for Hemolytic activity, percentage values: mean ± SD. The procedure:
The hemolytic activity of some selected compounds was evaluated as the amount of hemoglobin released by the disruption of human red blood cells (hRBCs). For the experiments, fresh hRBCs, obtained from peripheral blood of anonymous blood donors available for research purposes, were collected by centrifugation at 1500 g for 10 min, washed 3 times with PBS, and resuspended to a final concentration of 4% w/v hRBCs in PBS. Then, 100 µL of hRBCs suspension and an equal volume of the 2-fold dilutions of the […] were mixed in a 96-well plate and incubated for 1 h at 37 °C. […] Untreated hRBCs (incubated with PBS) and hRBCs incubated with 1% Triton X-100 were employed as negative and positive controls, respectively. The hemolysis percentage was calculated as [OD405nm (sample) − OD405nm (negative control)]/[OD405nm (positive control) − OD405nm (negative control)] × 100. Minimal hemolytic concentrations (MHCs) were defined as the compound concentrations causing 10% hemolysis.

pIC50: −log10 of the molar value. “Also recorded” adds a separate entry of the source.

What is called pIC50 is −log10 of the IC50, conventionally taken in molar units.

In the data set with S. aureus MRSA 5, `O=C1Nc2cc(OC(F)(F)F)ccc2C1(c1c(Cl)nc2sccn12)c1c(Cl)nc2sccn12` [Compound 11, 3,3-bis(6-Chloroimidazo[2,1-b]thiazol-5-yl)-6-(trifluoromethoxy)indolin-2-one] gave a pIC50 of 4.67. The “Hemolytic activity, percentage values” in data set [1] (1.56 µM) is 0.9 ± 1.8%; in data set [1] (3.125 µM), 1.1 ± 1.2%; in data set [1] (6.25 µM), 2.3 ± 0.2%; in data set [1] (12.5 µM) it was 2.2 ± 0.5%; in data set [1] (25 µM), 1.8 ± 1.5%; in data set [1] (50 µM), 0.7 ± 1.5%. The “Hemolytic activity, percentage values” in data set [1] (100 µM) is 1.1 ± 0.4%. For the same molecule, in data set [1] (range 100–1.56 µM), the hemolytic activity result is reported as “did not show an appreciable hemolytic activity; also recorded: no hemolytic property”.

These data come from article PMC11505029, “Isatin Bis-Imidathiazole Hybrids Identified as FtsZ Inhibitors with On-Target Activity Against Staphylococcus aureus” (Antibiotics, 2024).
